Measurements taken from US20110230476A1, “PI3 KINASE INHIBITORS AND USES THEREOF” (AVILA THERAPEUTICS, INC., priority 2009, published 2011).

Each compound was assayed against T1, PI3Kα (p110α/p85α) (Homo sapiens, UniProt P42336) (assay: HTRF assay, potency against active PI3Kα). Conditions: HTRF; [ATP]=50 μM, [di-C8-PIP2]=10 μM; 30 min pre-incubation; read-out: PI3Kα Inhibition.
T1 construct: purchased BPS Bioscience (San Diego, Calif.) or Millipore (Billerica, Mass.)
Format: biochemical
Method: Homogeneous Time Resolved Fluorescence (HTRF) Assay Protocol for Potency Assessment Against the Active Forms of PI3Kα, PI3Kβ, and PI3Kγ
The mechanics of the assay platform are best described by the vendor (Millipore, Billerica, Mass.) on their website at the following URL: www.millipore.com/coa/tech1/74jt4z.
Briefly, Stop solution (Stop A, #33-007 and Stop B, #33-009; 3:1 ratio) and Detection Mix (from DMC, #33-015 with DMA, #33-011 and DMB, #33-013; 18:1:1 ratio) were prepared as recommended by the manufacturer about 2 hrs prior to use. […] Lipid kinase reactions were started with the addition of 5 μL of ATP solution, mixed for 15 sec on a rotary plate shaker and incubated for 30-60 minutes at 25° C. Next, reactions were stopped with a 5 μL addition of Stop solution immediately followed by a 5 μL volume of Detection Mix. […] At the conclusion of each assay, the HTRF ratio from fluorescence emission values for each well was calculated and % Inhibition determined from averaged controls wells (+/−PI3K enzyme). % Inhibition values for each compound were then plotted against inhibitor concentration to estimate IC50 from log [Inhibitor] vs Response, Variable Slope model in GraphPad Prism from GraphPad Software (San Diego, Calif.).

T1 sequence (P42336 whole entry): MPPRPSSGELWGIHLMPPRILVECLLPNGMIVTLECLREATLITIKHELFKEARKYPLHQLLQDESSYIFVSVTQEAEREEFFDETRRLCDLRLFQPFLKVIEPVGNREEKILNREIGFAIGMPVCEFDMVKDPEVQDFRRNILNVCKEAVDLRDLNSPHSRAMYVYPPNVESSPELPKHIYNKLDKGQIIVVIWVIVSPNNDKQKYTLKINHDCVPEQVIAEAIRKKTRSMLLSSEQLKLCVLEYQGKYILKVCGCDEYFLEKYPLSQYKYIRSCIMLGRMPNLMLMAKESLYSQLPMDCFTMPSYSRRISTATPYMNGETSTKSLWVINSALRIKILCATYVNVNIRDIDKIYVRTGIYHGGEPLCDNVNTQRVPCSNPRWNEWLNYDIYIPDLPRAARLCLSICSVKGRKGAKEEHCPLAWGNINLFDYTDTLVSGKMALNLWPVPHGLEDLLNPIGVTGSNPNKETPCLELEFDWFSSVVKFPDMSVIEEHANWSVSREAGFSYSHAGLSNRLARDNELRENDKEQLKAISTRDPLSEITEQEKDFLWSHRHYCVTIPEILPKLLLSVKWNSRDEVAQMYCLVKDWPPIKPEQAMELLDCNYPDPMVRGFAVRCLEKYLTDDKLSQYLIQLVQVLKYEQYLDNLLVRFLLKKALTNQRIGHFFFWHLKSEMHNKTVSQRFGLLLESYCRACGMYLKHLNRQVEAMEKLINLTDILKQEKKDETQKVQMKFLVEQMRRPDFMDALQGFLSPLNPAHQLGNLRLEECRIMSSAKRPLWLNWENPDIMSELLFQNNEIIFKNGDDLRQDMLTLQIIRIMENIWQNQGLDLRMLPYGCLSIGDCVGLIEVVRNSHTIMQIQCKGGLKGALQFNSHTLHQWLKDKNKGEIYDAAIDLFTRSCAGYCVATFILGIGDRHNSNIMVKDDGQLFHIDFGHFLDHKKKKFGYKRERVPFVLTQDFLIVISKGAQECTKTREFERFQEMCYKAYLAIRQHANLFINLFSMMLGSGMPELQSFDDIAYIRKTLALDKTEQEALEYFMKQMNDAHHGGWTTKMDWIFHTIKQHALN
T1 sequence (P27986 whole entry partner): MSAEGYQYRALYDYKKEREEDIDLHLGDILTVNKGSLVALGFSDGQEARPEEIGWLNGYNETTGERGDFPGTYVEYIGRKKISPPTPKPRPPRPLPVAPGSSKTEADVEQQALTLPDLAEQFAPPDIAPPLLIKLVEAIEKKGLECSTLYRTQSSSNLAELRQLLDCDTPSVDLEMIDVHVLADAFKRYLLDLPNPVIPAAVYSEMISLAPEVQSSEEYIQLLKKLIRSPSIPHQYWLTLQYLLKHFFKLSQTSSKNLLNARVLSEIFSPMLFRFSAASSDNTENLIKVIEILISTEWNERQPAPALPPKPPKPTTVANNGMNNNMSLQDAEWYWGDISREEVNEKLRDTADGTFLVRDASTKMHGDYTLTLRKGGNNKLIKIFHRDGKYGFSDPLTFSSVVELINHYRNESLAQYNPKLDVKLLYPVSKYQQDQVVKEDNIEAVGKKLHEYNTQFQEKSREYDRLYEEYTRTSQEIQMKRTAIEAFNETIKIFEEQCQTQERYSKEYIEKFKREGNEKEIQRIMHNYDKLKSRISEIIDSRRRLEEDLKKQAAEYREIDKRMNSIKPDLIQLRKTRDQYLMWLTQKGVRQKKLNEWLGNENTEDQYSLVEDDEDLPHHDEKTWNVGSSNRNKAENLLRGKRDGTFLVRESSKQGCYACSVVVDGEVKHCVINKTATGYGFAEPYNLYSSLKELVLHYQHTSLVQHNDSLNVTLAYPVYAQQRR

| SMILES | IC50 [nM] |
| --- | --- |
| C=CC(=O)N1CCc2ccc(-c3cc4nc(-c5cccc(O)c5)nc(N5CCOCC5)c4s3)cc2C1 [II-a-106, 1-(7-(2-(3-hydroxyphenyl)-4-morpholinothieno[3,2-d]pyrimidin-6-yl)-3,4-dihydroisoquinolin-2(1H)-yl)prop-2-en-1-one] | 10 to 100 |
| C/C=C/C(=O)CCC(=O)N1CCc2cc(-c3cc4nc(-c5cccc(O)c5)nc(N5CCOCC5)c4s3)ccc2C1 [II-a-108, (E)-1-(6-(2-(3-hydroxyphenyl)-4-morpholinothieno[3,2-d]pyrimidin-6-yl)-3,4-dihydroisoquinolin-2(1H)-yl)hept-5-ene-1,4-dione] | < 10 |
| C/C=C/C(=O)CCC(=O)NC1CCN(c2ccc(-c3cc4nc(-c5cccc(O)c5)nc(N5CCOCC5)c4s3)cc2)CC1 [II-a-109, (E)-N-(1-(4-(2-(3-hydroxyphenyl)-4-morpholinothieno[3,2-d]pyrimidin-6-yl)phenyl)piperidin-4-yl)-4-oxohept-5-enamide] | < 10 |
| C=CC(=O)N1CCC(O)(CCc2cc3nc(-c4cccc(O)c4)nc(N4CCOCC4)c3s2)CC1 [II-a-111, 1-(4-hydroxy-4-(2-(2-(3-hydroxyphenyl)-4-morpholinothieno[3,2-d]pyrimidin-6-yl)ethyl)piperidin-1-yl)prop-2-en-1-one] | 10 to 100 |
| C=CC(=O)N1CCC2(CC1)CCN(C(=O)c1cc3nc(-c4cccc(O)c4)nc(N4CCOCC4)c3s1)CC2 [II-a-119, 1-(9-(2-(3-hydroxyphenyl)-4-morpholinothieno[3,2-d]pyrimidine-6-carbonyl)-3,9-diazaspiro[5.5]undecan-3-yl)prop-2-en-1-one] | 100 to 1000 |
| C=CC(=O)N1CCC(N2CCN(C(=O)c3cc4nc(-c5cccc(O)c5)nc(N5CCOCC5)c4s3)CC2)CC1 [II-a-120, 1-(4-(4-(2-(3-hydroxyphenyl)-4-morpholinothieno[3,2-d]pyrimidine-6-carbonyl)piperazin-1-yl)piperidin-1-yl)prop-2-en-1-one] | 100 to 1000 |
| C=CC(=O)NCC(=O)N1CCc2cc(-c3cc4nc(-c5cccc(O)c5)nc(N5CCOCC5)c4s3)ccc2C1 [II-a-121, N-(2-(6-(2-(3-hydroxyphenyl)-4-morpholinothieno[3,2-d]pyrimidin-6-yl)-3,4-dihydroisoquinolin-2(1H)-yl)-2-oxoethyl)acrylamide] | 100 to 1000 |
| C=CC(=O)NCC(=O)N1CCCc2cccc(-c3cc4nc(-c5cccc(O)c5)nc(N5CCOCC5)c4s3)c21 [II-a-124, N-(2-(8-(2-(3-hydroxyphenyl)-4-morpholinothieno[3,2-d]pyrimidin-6-yl)-3,4-dihydroquinolin-1(2H)-yl)-2-oxoethyl)acrylamide] | 100 to 1000 |
| C=CC(=O)NCC(=O)NCc1ccc(-c2cc3nc(-c4cccc5[nH]ncc45)nc(N4CCOCC4)c3s2)cc1 [II-a-128, N-(2-(4-(2-(1H-indazol-4-yl)-4-morpholinothieno[3,2-d]pyrimidin-6-yl)benzylamino)-2-oxoethyl)acrylamide] | 100 to 1000 |
| CN(C)C/C=C/C(=O)NC1CCN(c2ccc(-c3cc4nc(-c5cccc(O)c5)nc(N5CCOCC5)c4s3)cc2)CC1 [II-a-150, (E)-4-(dimethylamino)-N-(1-(4-(2-(3-hydroxyphenyl)-4-morpholinothieno[3,2-d]pyrimidin-6-yl)phenyl)piperidin-4-yl)but-2-enamide] | 10 to 100 |
| C=CC(=O)Nc1ccc(CCNC(=O)c2cc3nc(-c4cccc5[nH]ncc45)nc(N4CC5(COC5)C4)c3s2)cc1 [II-a-151, N-(4-acrylamidophenethyl)-2-(1H-indazol-4-yl)-4-(2-oxa-6-azaspiro[3.3]heptan-6-yl)thieno[3,2-d]pyrimidine-6-carboxamide] | > 1000 |
| C=CC(=O)Nc1ccc(C(=O)N2CC=C(c3cc4nc(-c5cccc(O)c5)nc(N5CCOCC5)c4s3)CC2)cc1OCCCN [II-a-155, N-(2-(3-aminopropoxy)-4-(4-(2-(3-hydroxyphenyl)-4-morpholinothieno[3,2-d]pyrimidin-6-yl)-1,2,3,6-tetrahydropyridine-1-carbonyl)phenyl)acrylamide] | 10 to 100 |

Second part, the compound after the results:

| IC50 [nM] | SMILES |
| --- | --- |
| 100 to 1000 | C=CC(=O)NCc1ccc(-c2cc3nc(-c4cccc5[nH]ncc45)nc(N4CCOCC4)c3s2)cc1 [II-a-107, N-(4-(2-(1H-indazol-4-yl)-4-morpholinothieno[3,2-d]pyrimidin-6-yl)benzyl)acrylamide] |
| 100 to 1000 | C=CC(=O)NC1CCN(c2ccc(-c3cc4nc(-c5cccc6[nH]ncc56)nc(N5CCOCC5)c4s3)cc2)CC1 [II-a-110, N-(1-(4-(2-(1H-indazol-4-yl)-4-morpholinothieno[3,2-d]pyrimidin-6-yl)phenyl)piperidin-4-yl)acrylamide] |
| > 1000 | O=C(C=C1COC1)CCC(=O)N1CCN(Cc2cc3nc(-c4cccc5[nH]ncc45)nc(N4CCOCC4)c3s2)CC1 [II-a-113, 1-(4-((2-(1H-indazol-4-yl)-4-morpholinothieno[3,2-d]pyrimidin-6-yl)methyl)piperazin-1-yl)-5-(oxetan-3-ylidene)pentane-1,4-dione] |
| 100 to 1000 | C/C=C/C(=O)CCC(=O)N1CCN(Cc2cc3nc(-c4ccnc5[nH]ccc45)nc(N4CCOCC4)c3s2)CC1 [II-a-114, (E)-1-(4-((4-morpholino-2-(1H-pyrrolo[2,3-b]pyridin-4-yl)thieno[3,2-d]pyrimidin-6-yl)methyl)piperazin-1-yl)hept-5-ene-1,4-dione] |
| 100 to 1000 | O=C(/C=C/c1ncc[nH]1)CCC(=O)N1CCN(Cc2cc3nc(-c4cccc5[nH]ncc45)nc(N4CCOCC4)c3s2)CC1 [II-a-125, (E)-1-(4-((2-(1H-indazol-4-yl)-4-morpholinothieno[3,2-d]pyrimidin-6-yl)methyl)piperazin-1-yl)-6-(1H-imidazol-2-yl)hex-5-ene-1,4-dione] |
| 100 to 1000 | Cn1ccnc1/C=C/C(=O)CCC(=O)N1CCN(Cc2cc3nc(-c4cccc5[nH]ncc45)nc(N4CCOCC4)c3s2)CC1 [II-a-129, (E)-1-(4-((2-(1H-indazol-4-yl)-4-morpholinothieno[3,2-d]pyrimidin-6-yl)methyl)piperazin-1-yl)-6-(1-methyl-1H-imidazol-2-yl)hex-5-ene-1,4-dione] |
| 100 to 1000 | CC(C)(C)/C=C/C(=O)CCC(=O)N1CCN(Cc2cc3nc(-c4cccc5[nH]ncc45)nc(N4CCOCC4)c3s2)CC1 [II-a-131, (E)-1-(4-((2-(1H-indazol-4-yl)-4-morpholinothieno[3,2-d]pyrimidin-6-yl)methyl)piperazin-1-yl)-7,7-dimethyloct-5-ene-1,4-dione] |
| 100 to 1000 | C=CC(=O)NCC(=O)N1CCC(O)(c2cc3nc(-c4cccc5[nH]ncc45)nc(N4CCOCC4)c3s2)CC1 [II-a-134, N-(2-(4-(2-(1H-indazol-4-yl)-4-morpholinothieno[3,2-d]pyrimidin-6-yl)-4-hydroxypiperidin-1-yl)-2-oxoethyl)acrylamide] |
| 100 to 1000 | O=C(/C=C/c1ccccc1)CCC(=O)N1CC=C(c2cc3nc(-c4cccc5[nH]ncc45)nc(N4CCOCC4)c3s2)CC1 [II-a-135, (E)-1-(4-(2-(1H-indazol-4-yl)-4-morpholinothieno[3,2-d]pyrimidin-6-yl)-5,6-dihydropyridin-1(2H)-yl)-6-phenylhex-5-ene-1,4-dione] |
| 100 to 1000 | O=C(/C=C/c1ccccc1)CCC(=O)N1CCC(O)(c2cc3nc(-c4cccc5[nH]ncc45)nc(N4CCOCC4)c3s2)CC1 [II-a-136, (E)-1-(4-(2-(1H-indazol-4-yl)-4-morpholinothieno[3,2-d]pyrimidin-6-yl)-4-hydroxypiperidin-1-yl)-6-phenylhex-5-ene-1,4-dione] |
| 100 to 1000 | O=C(CCl)N1CCN(Cc2cc3nc(-c4cccc5[nH]ncc45)nc(N4CCOCC4)c3s2)CC1 [II-a-145, 1-(4-((2-(1H-indazol-4-yl)-4-morpholinothieno[3,2-d]pyrimidin-6-yl)methyl)piperazin-1-yl)-2-chloroethanone] |
| > 1000 | C/C=C/C(=O)OCC(=O)N1CCN(Cc2cc3nc(-c4cccc5[nH]ncc45)nc(N4CCOCC4)c3s2)CC1 [II-a-146, (E)-2-(4-((2-(1H-indazol-4-yl)-4-morpholinothieno[3,2-d]pyrimidin-6-yl)methyl)piperazin-1-yl)-2-oxoethyl but-2-enoate] |
| 100 to 1000 | C=CC(=O)NOCC(=O)N1CCN(Cc2cc3nc(-c4cccc5[nH]ncc45)nc(N4CCOCC4)c3s2)CC1 [II-a-147, N-(2-(4-((2-(1H-indazol-4-yl)-4-morpholinothieno[3,2-d]pyrimidin-6-yl)methyl)piperazin-1-yl)-2-oxoethoxy)acrylamide] |
| 100 to 1000 | C/C=C(\C)C(=O)CCC(=O)N1CCN(Cc2cc3nc(-c4cccc5[nH]ncc45)nc(N4CCOCC4)c3s2)CC1 [II-a-149, (E)-1-(4-((2-(1H-indazol-4-yl)-4-morpholinothieno[3,2-d]pyrimidin-6-yl)methyl)piperazin-1-yl)-5-methylhept-5-ene-1,4-dione] |
| 100 to 1000 | C=CC(=O)NCC12CCC(c3cc4nc(-c5cccc6[nH]ncc56)nc(N5CCOCC5)c4s3)(CC1)OC2 [II-a-153, N-((1-(2-(1H-indazol-4-yl)-4-morpholinothieno[3,2-d]pyrimidin-6-yl)-2-oxabicyclo[2.2.2]octan-4-yl)methyl)acrylamide] |
